Reference: patent publication US10954269B2, “Anti-inflammatory tripeptides” (Dr. August Wolff Gmbh & Co. KG Arzneimittel, priority 2013, dated 2021)

Tests used:
[1] = system: primary human T-cells; test: Cytokine secretion on protein level in activated primary human T-cells (13-plex FACS / Luminex, supernatant); assay type: cell-based; details: for IL-1 cytokine concentration / IL-2 cytokine concentration / IL-4 cytokine concentration / IL-5 cytokine concentration / IL-6 cytokine concentration / IL-9 cytokine concentration / IL-10 cytokine concentration / IL-12p70 cytokine concentration / IL-13 cytokine concentration / IL-17 cytokine concentration / IL-22 cytokine concentration / TNF-α cytokine concentration / INF-α cytokine concentration: substance 10^−9M
Summary of the method: (§1)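 First, T-cells are isolated from healthy donors' blood. Next, they and HaCaT keratinocytes are activated for 48 h with PMA/Ionomycin or IFN-γ in the presence of tripeptides. Finally, secreted cytokines are quantified in supernatants by 13-plex FACS at 48 and 72 h.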

[2] = system: human keratinocyte cell line (HaCaT); test: Cytokine secretion on protein level in activated human keratinocyte cell line HaCaT (13-plex FACS / Luminex, supernatant); assay type: cell-based; details: for IL-1 cytokine concentration / IL-2 cytokine concentration / IL-4 cytokine concentration / IL-5 cytokine concentration / IL-6 cytokine concentration / IL-9 cytokine concentration / IL-10 cytokine concentration / IL-12p70 cytokine concentration / IL-13 cytokine concentration / IL-17 cytokine concentration / IL-22 cytokine concentration / TNF-α cytokine concentration / IFN-γ cytokine concentration: substance 10^−9M
Summary of the method: as §1

[3] = system: primary murine T-cells; test: Cytokine secretion on protein level in activated primary murine T-cells (13-plex FACS / Luminex, supernatant); assay type: cell-based, C57BL/6 mice; details: substance 10^−9M
Summary of the method: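 T-cells from secondary lymphatic organs of naïve C57BL/6 mice, stimulated with PMA/Ionomycin or IFN-γ; supernatant cytokines measured by 13-plex FACS 48 h and 72 h after stimulation. In another run, PMA/Ionomycin-stimulated cells received compounds at 10^−7, 10^−9 and 10^−11 M, with IFN-γ, IL-17 and IL-10 measured by Luminex.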

[4] = primary human T-cells stimulated with IFN-γ
[5] = primary human T-cells stimulated with PBS
[6] = primary human T-cells stimulated with PMA/Ionomycin
[7] = HaCaT stimulated with PMA/Ionomycin
[8] = primary murine T-cells stimulated with IFN-γ
[9] = primary murine T-cells stimulated with PBS
[10] = primary murine T-cells stimulated with PMA/Ionomycin

Substance: N^α,N^α-dimethyl-(L)-Nle-(D)-Pro-N^α-methyl-(L)-Thr-OH [Example 6]
- secretion / expression of pro-inflammatory cytokines (supernatant) ([1]; activated primary human T-cells): decreased expression
- IL-1 cytokine concentration [1, 4]: 0 pg/mL
- IL-2 cytokine concentration [1, 4]: 0 pg/mL
- IL-4 cytokine concentration [1, 4]: 76.04 pg/mL
- IL-5 cytokine concentration [1, 4]: 0 pg/mL
- IL-6 cytokine concentration [1, 4]: 45.83 pg/mL
- IL-9 cytokine concentration [1, 4]: 0 pg/mL
- IL-10 cytokine concentration [1, 4]: 51.86 pg/mL
- IL-12p70 cytokine concentration [1, 4]: 0 pg/mL
- IL-13 cytokine concentration [1, 4]: 46.95 pg/mL
- IL-17 cytokine concentration [1, 4]: 36.76 pg/mL
- IL-22 cytokine concentration [1, 4]: 0 pg/mL
- TNF-α cytokine concentration [1, 4]: 17.44 pg/mL
- IL-1 cytokine concentration [1, 5]: 107.12 pg/mL
- IL-2 cytokine concentration [1, 5]: 114.93 pg/mL
- IL-5 cytokine concentration [1, 5]: 12.74 pg/mL
- IL-6 cytokine concentration [1, 5]: 105.53 pg/mL
- IL-9 cytokine concentration [1, 5]: 8.15 pg/mL
- IL-10 cytokine concentration [1, 5]: 92.62 pg/mL
- IL-12p70 cytokine concentration [1, 5]: 0 pg/mL
- IL-13 cytokine concentration [1, 5]: 0 pg/mL
- IL-17 cytokine concentration [1, 5]: 113.52 pg/mL
- IL-22 cytokine concentration [1, 5]: 0 pg/mL
- INF-α cytokine concentration [1, 5]: 0 pg/mL
- TNF-α cytokine concentration [1, 5]: 28.11 pg/mL
- IL-1 cytokine concentration [1, 6]: 533.57 pg/mL
- IL-2 cytokine concentration [1, 6]: 2005.81 pg/mL
- IL-4 cytokine concentration [1, 6]: 87.24 pg/mL
- IL-5 cytokine concentration [1, 6]: 312.5 pg/mL
- IL-6 cytokine concentration [1, 6]: 1194.58 pg/mL
- IL-9 cytokine concentration [1, 6]: 238.28 pg/mL
- IL-10 cytokine concentration [1, 6]: 999.32 pg/mL
- IL-12p70 cytokine concentration [1, 6]: 0 pg/mL
- IL-13 cytokine concentration [1, 6]: 1050.19 pg/mL
- IL-17 cytokine concentration [1, 6]: 1388.88 pg/mL
- IL-22 cytokine concentration [1, 6]: 0 pg/mL
- INF-α cytokine concentration [1, 6]: 7597.87 pg/mL
- TNF-α cytokine concentration [1, 6]: 2638.52 pg/mL
- IL-1 cytokine concentration ([2]; HaCaT stimulated with IFN-γ): 0 pg/mL
- IL-2 cytokine concentration ([2]; HaCaT stimulated with IFN-γ): 17.47 pg/mL
- IL-4 cytokine concentration ([2]; HaCaT stimulated with IFN-γ): 0 pg/mL
- IL-5 cytokine concentration ([2]; HaCaT stimulated with IFN-γ): 0 pg/mL
- IL-6 cytokine concentration ([2]; HaCaT stimulated with IFN-γ): 202.37 pg/mL
- IL-9 cytokine concentration ([2]; HaCaT stimulated with IFN-γ): 0 pg/mL
- IL-10 cytokine concentration ([2]; HaCaT stimulated with IFN-γ): 0 pg/mL
- IL-12p70 cytokine concentration ([2]; HaCaT stimulated with IFN-γ): 0 pg/mL
- IL-13 cytokine concentration ([2]; HaCaT stimulated with IFN-γ): 1872.11 pg/mL
- IL-17 cytokine concentration ([2]; HaCaT stimulated with IFN-γ): 0 pg/mL
- IL-22 cytokine concentration ([2]; HaCaT stimulated with IFN-γ): 0 pg/mL
- TNF-α cytokine concentration ([2]; HaCaT stimulated with IFN-γ): 0 pg/mL
- IFN-γ cytokine concentration ([2]; HaCaT stimulated with PBS): 0 pg/mL
- IL-1 cytokine concentration ([2]; HaCaT stimulated with PBS): 25.45 pg/mL
- IL-2 cytokine concentration ([2]; HaCaT stimulated with PBS): 0 pg/mL
- IL-4 cytokine concentration ([2]; HaCaT stimulated with PBS): 91.99 pg/mL
- IL-5 cytokine concentration ([2]; HaCaT stimulated with PBS): 0 pg/mL
- IL-6 cytokine concentration ([2]; HaCaT stimulated with PBS): 52.48 pg/mL
- IL-9 cytokine concentration ([2]; HaCaT stimulated with PBS): 0 pg/mL
- IL-10 cytokine concentration ([2]; HaCaT stimulated with PBS): 57.95 pg/mL
- IL-12p70 cytokine concentration ([2]; HaCaT stimulated with PBS): 0 pg/mL
- IL-13 cytokine concentration ([2]; HaCaT stimulated with PBS): 0 pg/mL
- IL-17 cytokine concentration ([2]; HaCaT stimulated with PBS): 26.72 pg/mL
- IL-22 cytokine concentration ([2]; HaCaT stimulated with PBS): 0 pg/mL
- TNF-α cytokine concentration ([2]; HaCaT stimulated with PBS): 8.21 pg/mL
- IFN-γ cytokine concentration [2, 7]: 0 pg/mL
- IL-1 cytokine concentration [2, 7]: 62.07 pg/mL
- IL-2 cytokine concentration [2, 7]: 16.53 pg/mL
- IL-4 cytokine concentration [2, 7]: 0 pg/mL
- IL-5 cytokine concentration [2, 7]: 0 pg/mL
- IL-6 cytokine concentration [2, 7]: 248.33 pg/mL
- IL-9 cytokine concentration [2, 7]: 3.71 pg/mL
- IL-10 cytokine concentration [2, 7]: 64.03 pg/mL
- IL-12p70 cytokine concentration [2, 7]: 0 pg/mL
- IL-13 cytokine concentration [2, 7]: 0 pg/mL
- IL-17 cytokine concentration [2, 7]: 21.52 pg/mL
- IL-22 cytokine concentration [2, 7]: 0 pg/mL
- TNF-α cytokine concentration [2, 7]: 5.37 pg/mL
- secretion / expression of pro-inflammatory cytokines (supernatant) ([2]; activated human keratinocytes): decreased expression
- IL-1 cytokine concentration [3, 8]: 95.15 pg/mL
- IL-2 cytokine concentration [3, 8]: 181.25 pg/mL
- IL-4 cytokine concentration [3, 8]: 156.84 pg/mL
- IL-5 cytokine concentration [3, 8]: 517.47 pg/mL
- IL-6 cytokine concentration [3, 8]: 223.98 pg/mL
- IL-10 cytokine concentration [3, 8]: 1782.7 pg/mL
- IL-13 cytokine concentration [3, 8]: 0 pg/mL
- IL-17 cytokine concentration [3, 8]: 189.88 pg/mL
- IL-21 cytokine concentration [3, 8]: 251.06 pg/mL
- IL-22 cytokine concentration [3, 8]: 73.27 pg/mL
- IL-27 cytokine concentration [3, 8]: 0 pg/mL
- TNF-α cytokine concentration [3, 8]: 40.87 pg/mL
- IFN-γ cytokine concentration [3, 9]: 546.71 pg/mL
- IL-1 cytokine concentration [3, 9]: 106.27 pg/mL
- IL-2 cytokine concentration [3, 9]: 204.71 pg/mL
- IL-4 cytokine concentration [3, 9]: 39.23 pg/mL
- IL-5 cytokine concentration [3, 9]: 407.29 pg/mL
- IL-6 cytokine concentration [3, 9]: 170.46 pg/mL
- IL-10 cytokine concentration [3, 9]: 1391.3 pg/mL
- IL-13 cytokine concentration [3, 9]: 0 pg/mL
- IL-17 cytokine concentration [3, 9]: 0 pg/mL
- IL-21 cytokine concentration [3, 9]: 0 pg/mL
- IL-22 cytokine concentration [3, 9]: 16.55 pg/mL
- IL-27 cytokine concentration [3, 9]: 108.06 pg/mL
- TNF-α cytokine concentration [3, 9]: 0 pg/mL
- IFN-γ cytokine concentration [3, 10]: 8164.35 pg/mL
- IL-1 cytokine concentration [3, 10]: 486.85 pg/mL
- IL-2 cytokine concentration [3, 10]: 218.69 pg/mL
- IL-4 cytokine concentration [3, 10]: 164.69 pg/mL
- IL-5 cytokine concentration [3, 10]: 380.37 pg/mL
- IL-6 cytokine concentration [3, 10]: 237.95 pg/mL
- IL-10 cytokine concentration [3, 10]: 988.64 pg/mL
- IL-13 cytokine concentration [3, 10]: 0 pg/mL
- IL-17 cytokine concentration [3, 10]: 200.32 pg/mL
- IL-21 cytokine concentration [3, 10]: 470.65 pg/mL
- IL-22 cytokine concentration [3, 10]: 85.67 pg/mL
- IL-27 cytokine concentration [3, 10]: 95.51 pg/mL
- TNF-α cytokine concentration [3, 10]: 72.81 pg/mL
